Series [1] deals with alcohol-preferring (P) rats. The series can be described thus: voluntary ethanol consumption in alcohol-preferring (P) rats. The following applies: for ethanol drinking relative to controls: Relapse Test phase, p<0.05. It is filed as in vivo, rat. On the procedure:
(§1) The ability of ibudilast (MN-166) to decrease voluntary ethanol consumption, under blind testing conditions, in selectively-bred alcohol-preferring (P) and high-alcohol-drinking (HAD1) rats and in a mouse model of ethanol dependence was examined.
(§2) To perform the study, adult male P and HAD1 rats were randomly assigned to receive one of the following four doses of ibudilast—0 mg/Kg, 3 mg/Kg, 6 mg/Kg, or 9 mg/Kg with eight rats assigned to each dose. Each dosing group was balanced to average a 2 h/day ethanol (15% v/v) intake. Water was concurrently available to the rats and Mazola corn oil was used as the vehicle.
(§3) The study was divided into four test phases. In the maintenance test phase rats in the treatment group were injected ibudilast subcutaneously (2 mL/kg s.c.), using standard solutions that deliver 3 mg/Kg, 6 mg/Kg or 9 mg/Kg of ibudilast, 60 min before each ethanol test session and the same dose of ibudilast was administered subcutaneously to the rats 8 hours later. Rats in the control group, however, are administered 2 mL/Kg Mazola corn oil subcutaneously. This protocol was carried out for 4 consecutive days. Following the maintenance test phase, is a two week no drug recovery phase during which rats are permitted access to ethanol and the amount of ethanol consumed by the rats was measured.
(§4) The recovery phase is followed by a two week forced ethanol abstinence phase. Following forced abstinence, the effects of ibudilast on ethanol drinking were examined by re-introducing ethanol to rats for a period of 5 consecutive days (i.e., the Relapse Test phase). Each animal received the same dose of ibudilast during maintenance and relapse test phases.

The test system of series [2] is high-alcohol-drinking (HAD1) rats. Put plainly: voluntary ethanol consumption in high-alcohol-drinking (HAD1) rats. The series is classed as in vivo, rat. On the procedure:
as §1, §2, §3, §4

The subject of a further series is C57BL/6J mice. Put plainly: mouse model of ethanol dependence, chronic intermittent ethanol (CIE) exposure. It is filed as in vivo. Particulars: for ethanol intake of alcohol dependent mice compared with control group counterparts / reduction of ethanol intake, alcohol dependent versus control mice: Test Cycle 9; for ethanol consumption relative to vehicle: Test Cycle 8. The method, then:
Briefly, mice were divided into test (ethanol dependent) and control (non-ethanol dependent) groups. Mice in the former group were exposed to chronic intermittent ethanol (CIE) vapor (16 hr/day×4 days), and then forced to abstain from alcohol for 72 hours. Mice were then permitted access to ethanol for 2 h/day for a 5-day test period. This pattern of weekly CIE exposures followed by 5-day test periods was repeated for 9 cycles. Mice in the control group were treated in the same manner, except these animals were exposed to air rather than ethanol vapors. Mice from both groups were further divided into four sub-groups with animals receiving 0 mg/Kg, 3 mg/Kg, 6 mg/Kg or 12 mg/Kg dose of ibudilast. In a separate study, adult male C57BL/6J mice were used to evaluate ibudilast as a therapeutic for the treatment of alcohol dependence. Two groups of mice were used for the study. Mice in the first group were trained to drink ethanol using a 2 h/day free-choice (15% v/v ethanol) drinking procedure (ethanol dependent (EtOH) mice), while mice in the second group were provided water and served a control (ethanol nondependent (CTL)) mice. Both the ethanol dependent and ethanol non-dependent groups had equal number of mice (N=37-38/group). Mice in the alcohol dependent group were then exposed to chronic intermittent ethanol (CIE) vapors for 16 hr/day over four days. After a 72 hours forced abstinence period, the ethanol dependent mice were again permitted access to ethanol for 2 hours each day over a 5 consecutive test days. This pattern of chronic intermittent ethanol vapor exposure for four consecutive days followed by forced abstinence and a five day ethanol access test period was repeated for 9 cycles. […] Both control and ethanol dependent mice received subcutaneous (s.c.) injections of the vehicle at 9 hours and 1 hour prior to the start of daily drinking sessions during Test Cycles 4, 5 and 6 to acclimate the animals to handling and administration of injections. At the end of test cycle 6, mice in the ethanol dependent group and the control group were separated into four sub-groups with animals receiving one of four doses of ibudilast—0 mg/Kg, 3 mg/Kg, 6 mg/Kg or 12 mg/Kg during Test Cycles 7 and 8. Each sub-group contained 9-10 mice (N=9-10/group). The dose of ibudilast was increased during Test Cycle 9 with ethanol dependent and control mice receiving one of the following four doses of ibudilast—0 mg/Kg, 6 mg/Kg, 12 mg/Kg, or 18 mg/Kg. Thus, mice previously receiving a dose of 3 mg were administered ibudilast at a dose of 18 mg/Kg during Test Cycle 9.

The conditions of series [3]: in vivo; cited from earlier work.
Setting [4] is: 4-day maintenance test-phase, each dose (3, 6, 9 mg/Kg), p<=0.001.
The mark [5] stands for this setting: 5-day Relapse Test phase after two week forced abstinence.
Where [6] appears, read: especially at the 9 mg/Kg dose, effect diminished over the 5-day test phase.
The mark [7] stands for this setting: maintenance test phase, 4 days, ibudilast s.c. 60 min before session and 8 hours later, 2 h/day ethanol 15% v/v.
[8] abbreviates: relapse test phase, data not shown.

Each structure is given as a SMILES string.

Turning to `CC(C)C(=O)c1c(C(C)C)nn2ccccc12` [ibudilast, Ibudilast], the “ethanol intake relative to vehicle-injected controls” value in series [1] (setting [4]) and in series [2] (setting [4]) was “reduced ethanol intake” in each case. Besides, the “reduction of ethanol intake” value in series [1] (setting [5]) is “about 50%”; in series [1] (setting [7]), “approximately 50%”; in series [2] (setting [5]), “about 50%”; in series [2] (setting [7]) it was “approximately 50%”. In addition, the “ethanol drinking relative to controls” value in series [1] (6 mg/Kg) and in series [1] (9 mg/Kg) was “significantly reducing ethanol drinking” each time. Also, the 24-hour water intake entry in series [1] (especially at the 9 mg/Kg dose) and in series [2] (especially at the 9 mg/Kg dose) was “not water intake” each time. Besides, the 24-hour food intake entry in series [1] (setting [6]) and in series [2] (setting [6]) was “transitory reductions in 24-hour food intake” throughout. Also, the “Dose x Day interaction of reduced ethanol intake” value in series [1] (setting [8]) and in series [2] (setting [8]) was “most robust on the first day” each time. Further, the “ethanol intake compared to controls” value in series [2] (Relapse Test phase, each test dose, p<0.05) is “reduce ethanol intake compared to controls”. Also, the “ethanol intake of alcohol dependent mice compared with control group counterparts” value with C57BL/6J mice (6 mg ibudilast, p<0.05) is “consumed significantly more ethanol”; in the series with C57BL/6J mice (12 mg/Kg) it was “no significant difference in ethanol intake”; in the series with C57BL/6J mice (18 mg/Kg) it was “no significant difference in ethanol intake”. For the same compound, the “reduction of ethanol intake, alcohol dependent versus control mice” value in the series on C57BL/6J mice (12 mg/Kg) and in the series on C57BL/6J mice (18 mg/Kg) was “more effective at reducing ethanol intake in alcohol dependent mice than control mice” each time. In addition, in the series on C57BL/6J mice (alcohol dependent mice, 12 mg/Kg s.c., Test Cycle 7 (implied, FIG. 2)), the ethanol intake entry is “reduced ethanol in alcohol dependent mice”. Besides, the “ethanol consumption relative to vehicle” value is recorded as “reduced ethanol consumption to a greater extent” with C57BL/6J mice (alcohol dependent mice, 12 mg/Kg, p<0.05) and “reduced ethanol consumption to a greater extent” in the series with C57BL/6J mice (control (CTL) mice, 12 mg/Kg, p<0.05). Also, the “ethanol intake of test (ethanol dependent) mice relative to control group levels” value with C57BL/6J mice (at the higher doses) is “below those for mice in the control group”.

On to `CC[C@@H](C(N)=O)N1CCCC1=O` [levatiracetam], for which, in series [3], the “selective reduction of ethanol drinking” value was “do not selectively reduce ethanol drinking”.

In the case of `OCCOCCN1CCN(C2=Nc3ccccc3Sc3ccccc32)CC1` [quetiapine], in series [3], the “selective reduction of ethanol drinking” value is given as “do not selectively reduce ethanol drinking”.

These data come from patent US20150051191A1, “TREATMENT OF ALCOHOLISM USING IBUDILAST” (MEDICINOVA, INC., priority 2013, published 2015).
